Series [1] is described as follows: Assessment of coloration of deodorant or antiperspirant formulations containing perfuming ingredients with or without Haloscent D. The note with it: perfuming ingredient 0.5 wt %, after 15 days. Type of series: physicochemical. Further details: key: CO: color; COYE: yelow color; VSCOYE: very slight yellow color; SCOYE: slight yellow color; VCOYE: very yellow color; NC: no color; DECO: decoloration; CL: cloud; VCL: very cloud; WH: white; VCOBR: very brown color; COPI: ping color. The procedure:
(§1) Preparation of an Antiperspirant Spray Formulation: Using a high speed stirrer, Silica (Table 1) and Quaternium-18-Hectorite (Table 1) were added to the Isopropyl miristate (Table 1) and Cyclomethicone mixture (Table 1). Once completely swollen, Aluminium Chlorohydrate (Table 1) was added portion wise under stirring until the mixture was homogeneous and without lumps. The aerosol cans were filled with 25% Suspension of the suspension and 75% of Propane/Butane (2.5 bar).
(§2) Preparation of Deodorant Spray Formulation: All the ingredients according to the sequence of the Table 2 were mixed and dissolved. Then the aerosol cans were filled, crimp and add the propellant (Aerosol filling: 40% active solution 60% Propane/Butane 2.5 bar).
(§3) Part A was prepared by sprinkling little by little the Hydroxyethylcellulose (Table 3) in the water (Table 3) whilst rapidly stirring with the turbine. Stirring was continued until the Hydroxyethylcellulose had entirely swollen and giving a limpid gel. Then, Part B (Table 3) was poured little by little in Part A whilst continuing stirring until the whole was homogeneous. Part C was added (Table 3).
(§4) Preparation of a Deodorant Stick Formulation: All the components of Part A were weighted (Table 4) and heated up to 70-75° C. Ceteareth-25 (Table 4) was added once the other Part A ingredients were mixed and heated. Once the Ceteareth-25 was dissolved, the Stearic Acid was added. Part B was prepared by dissolving the Triclosan (Table 4) in 1,2 Propylene Glycol (Table 4). Water which has evaporated was added. Slowly under mixing, Part B was poured into part A. To stock, a plastic bag into the bucket was put in to be sealed after cooling. Moulds was filled at about 70° C.
(§5) Preparation of an Antiperspirant Stick Formulation: All the components of Part A were weighted (Table 5), heated up to 70-75° C. and mixed well. Ingredient of Part B was dispersed in Part A. The mixture was mixed and putted into a tick at 65° C.
(§6) Assessment of Coloration in the Perfuming Ingredients: To set of deodorant or antiperspirant formulations of point a) to e) has been prepared. A perfuming ingredient (0.5 wt %—Table 6, 7 and 8) was added to the first set a and a perfuming ingredient (0.5 wt %—Table 6, 7 and 8) and Haloscent® D (0.5 wt %) were added to the second set. All these formulations were placed at 3° C. and 45° C. for several weeks. All formulations were evaluated in comparison with unperfumed deodorant or antiperspirant formulation. The coloration of each formulation was assessed by a minimum of 2 panelists.

Assay in series [2]: as above
Type of series: physicochemical. Also noted: key: CO: color; COYE: yellow color; SCOYE: slight yellow color; VCOYE: very yellow color; NC: no color; DECO: discoloration; CL: cloud; VCL: very cloud; WH: white; VCOBR: very brown color; COPI: ping color. The note with it: perfuming ingredient 0.5 wt %, after 15 days; for Coloration of deodorant stick: DEO STICK + Haloscent D 0.5 wt %; for Coloration of deodorant spray: DEO SPRAY + Haloscent D 0.5 wt %; for Coloration of deodorant roll-on: DEO ROLL-ON + Haloscent D 0.5 wt %. As for the experimental part: as §1, §2, §3, §4, §5, §6

Assay in series [3]: as above
Also noted: key to Coloration of antiperspirant stick: CO: color; COYE: yelow color; VSCOYE: very slight yellow color; SCOYE: slight yellow color; VCOYE: very yellow color; NC: no color; DECO: decoloration; CL: cloud; VCL: very cloud; WH: white; VCOBR: very brown color; COPI: ping color. Type of series: physicochemical. The note with it: perfuming ingredient 0.5 wt %; for Coloration of antiperspirant stick: after 7 days. The procedure:
as §1, §2, §3, §4, §5, §6

The nature of series [4]: Sensory evaluation of spray deodorant on cotton t-shirts: perceived fragrance intensity. The note with it: deodorant spray on t-shirt, immediately after application. An excerpt: Test formulations comprising either fragrance formulation 1 containing the β-thio carbonyl derivative profragrance of formula (I), commercially available as HALOSCENT®-D, at the amounts indicated, or fragrance formulation 1 containing the 0-thio carbonyl derivative profragrance of formula (I), commercially available as HALOSCENT®-I were formulated as deodorant sprays.
One gram of each of the test formulation was applied to separate 2-3 year old cotton t-shirts. In parallel, control formulations, comprising fragrance formulation alone (i.e., lacking the β-thio carbonyl derivative profragrance of formula (I)) were similarly applied to separate t-shirts.
A minimum of 18 skilled panelists were asked to evaluate the intensity of the fragrance of the […], in a blind, balanced, randomized study, with a 20 second break between samples.
The panelists were asked to rank the intensity of the fragrance from 0 (not perceptible), to 10 (very strong odour). The results of the evaluation were analyzed using Analysis of Variance with Duncan's post-hoc analysis (α=0.05). The analyzed results are shown in FIG. 1, where the average for each sample at the times indicated are shown. The error bars indicate the 95% confidence level. ***=a significant difference at 99.9%; **=a significant difference at 99%; *=significant difference at 95%; NS=no significant difference.

The mark [5] stands for this setting: DEO ROLL-ON + Haloscent D 0.5 wt %, 3° C.
[6] abbreviates: DEO ROLL-ON + Haloscent D 0.5 wt %, 45° C.
Where [7] appears, read: AP Stick + Haloscent D 0.5 wt %, 3° C.
The mark [8] stands for this setting: AP Stick + Haloscent D 0.5 wt %, 45° C.
[9] abbreviates: AP SPRAY + Haloscent D 0.5 wt %, 3° C.
Setting [10] is: AP SPRAY + Haloscent D 0.5 wt %, 45° C.
The mark [11] stands for this setting: DEO STICK + Haloscent D 0.5 wt %, 3° C.
The mark [12] stands for this setting: DEO STICK + Haloscent D 0.5 wt %, 45° C.

On to `CC(C)=CCC/C(C)=C/CO` [(E)-3,7-DIMETHYL-2,6-OCTADIEN-1-OL], for which the “Coloration of deodorant roll-on” value is on record as “NC” in series [1] (setting [5]); “NC” in series [1] (setting [6]); “NC” in series [1] (DEO ROLL-ON, 3° C.); “NC” in series [1] (DEO ROLL-ON, 45° C.). Moreover, the “Coloration of deodorant stick” value is on record as “NC” in series [1] (DEO STICK, 3° C.); “NC” in series [1] (DEO STICK, 45° C.); “COYE” in series [2] (3° C.); “COYE” in series [2] (45° C.). Also, the “Coloration of antiperspirant stick” value in series [3] (setting [7]) was “VSCO”; in series [3] (setting [8]), “NC”; in series [3] (AP Stick, 3° C.) it was “DECO”; in series [3] (AP Stick, 45° C.), “NC”.

As to `CCCCCCCCCCCCSC(C)CC(=O)C1C(C)C=CCC1(C)C` (stereo not shown) [Haloscent ® D, 3-(dodecylthio)-1-(2,6,6-trimethylcyclohex-3-en-1-yl)butan-1-one], the “Coloration of antiperspirant spray” value is “NC” in series [1] (setting [9]) and “SCOYE” in series [1] (setting [10]). For the same molecule, the “Coloration of deodorant roll-on” value in series [1] (setting [5]) and in series [1] (setting [6]) was “NC” each time. In addition, the “Coloration of deodorant spray” value is “SCOYE” in series [1] (DEO SPRAY + Haloscent D 0.5 wt %, 3° C.) and “COYE” in series [2] (45° C.). The “Coloration of deodorant stick” value in series [1] (setting [11]) is given as “NC”; in series [3] (DEO STICK + Haloscent D 0.5 wt %, 45° C., after 15 days) it was “COYE CL”. Also, the “Coloration of antiperspirant stick” value in series [3] (setting [7]) and in series [3] (setting [8]) was “DECO PI” each time. Also, in series [4] (fragrance formulation 1 containing 1.2% HALOSCENT-D), the “Perceived intensity of fragrance versus control formulation (FIG. 1)” value is “significant increases”.

As to `CCCCCCCCCCCCSC(CC(C)=O)C1C(C)=CCCC1(C)C` (stereo not shown) [HALOSCENT®-I, 4-(dodecylthio)-4-(2,6,6-trimethylcyclohex-2-en-1-yl)butan-2-one], in series [4] (fragrance formulation 1 containing 3% HALOSCENT-I), the “Perceived intensity of fragrance versus control formulation (FIG. 1)” value is listed as “significant increases”.

“1-OXA-12-CYCLOHEXADECEN-2-ONE (A) + 1-OXA-13-CYCLOHEXADECEN-2-ONE [HABANOLIDE]”: the “Coloration of antiperspirant spray” value in series [1] (setting [9]) is reported as “SCOYE”; in series [1] (setting [10]) it was “SCOYE”; in series [1] (AP SPRAY, 3° C.) it was “NC”; in series [1] (AP SPRAY, 45° C.), “NC”. Besides, the “Coloration of deodorant roll-on” value in series [1] (setting [5]) is “WH”; in series [1] (setting [6]) it was “VCL”; in series [1] (DEO ROLL-ON, 3° C.), “VCL”; in series [1] (DEO ROLL-ON, 45° C.), “VCL”. Further, the “Coloration of deodorant spray” value in series [1] (DEO SPRAY, 3° C.) was “NC”; in series [1] (DEO SPRAY, 45° C.), “NC”; in series [2] (3° C.), “DECO”; in series [2] (45° C.), “DECO”. Also, the “Coloration of deodorant stick” value in series [1] (setting [11]) is “NC”; in series [1] (setting [12]), “NC”; in series [1] (DEO STICK, 3° C.), “NC”; in series [1] (DEO STICK, 45° C.), “NC”. In addition, the “Coloration of antiperspirant stick” value in series [3] (setting [7]) is reported as “DECO”; in series [3] (setting [8]), “SCOYE”; in series [3] (AP Stick, 3° C.), “DECO”; in series [3] (AP Stick, 45° C.), “VSCOYE”.

Consider `O=C1CC/C=C\CCCCCCCCCC1` [EXALTENONE, (Z)-4-CYCLOPENTADECEN-1-ONE], for which the “Coloration of antiperspirant spray” value in series [1] (setting [9]) is “NC”; in series [1] (setting [10]), “NC”; in series [1] (AP SPRAY, 3° C.), “NC”; in series [1] (AP SPRAY, 45° C.) it was “NC”. For the same molecule, the “Coloration of deodorant roll-on” value in series [1] (setting [5]) was “WH”; in series [1] (setting [6]), “CL”; in series [1] (DEO ROLL-ON, 3° C.) it was “VCL”; in series [1] (DEO ROLL-ON, 45° C.), “VCL”. Further, the “Coloration of deodorant spray” value in series [1] (DEO SPRAY, 3° C.) was “NC”; in series [1] (DEO SPRAY, 45° C.) it was “NC”; in series [2] (3° C.), “COYE”; in series [2] (45° C.), “COYE”. Further, the “Coloration of deodorant stick” value was “NC” in series [1] (setting [11]); “NC” in series [1] (setting [12]); “NC” in series [1] (DEO STICK, 3° C.); “NC” in series [1] (DEO STICK, 45° C.).

As to “(+−)-(3E)-3-methyl-4-(2,6,6-trimethyl-2-cyclohexen-1-yl)-3-buten-2-one (A) + (+−)-(1E)-1-(2,6,6-trimethyl-2-cyclohexen-1-yl)-1-penten-3-one (B) [ISORALDEINE 70P]”, the “Coloration of deodorant roll-on” value is on record as “WH” in series [1] (setting [5]); “VCL” in series [1] (DEO ROLL-ON, 3° C.); “NC” in series [1] (DEO ROLL-ON, 45° C.); “COYE” in series [2] (45° C.). For the same molecule, the “Coloration of deodorant stick” value is reported as “NC” in series [1] (setting [11]); “VCOYE” in series [1] (setting [12]); “NC” in series [1] (DEO STICK, 3° C.); “VCOYE” in series [1] (DEO STICK, 45° C.).

Turning to `CCC(=O)OCC(=O)O[C@@H](C)[C@@H]1CCCC(C)(C)C1` [ROMANDOLIDE, 2-{(1S)-1-[(1R)-3,3-dimethylcyclohexyl]ethoxy}-2-oxoethyl propionate], the “Coloration of deodorant roll-on” value in series [1] (setting [5]) is given as “VCL”; in series [1] (DEO ROLL-ON, 3° C.) it was “VCL”; in series [1] (DEO ROLL-ON, 45° C.) it was “NC”; in series [2] (45° C.) it was “COYE”. For the same molecule, the “Coloration of deodorant stick” value in series [1] (setting [11]) was “NC”; in series [1] (setting [12]), “NC”; in series [1] (DEO STICK, 3° C.), “NC”; in series [1] (DEO STICK, 45° C.), “NC”.

These data come from patent US12016943B2, “Antiperspirant or deodorant composition” (Firmenich SA, priority 2016, dated 2024).
